From patent US20250129028A1, “COMPOUNDS AND METHODS FOR YAP/TEAD MODULATION AND INDICATIONS THEREFOR” (Opna Bio SA, priority 2022, published 2025)

Test system: TEAD-dependent transcription
Assay: TEAD-dependent transcription cell-based reporter assay (MSTO-211H+12XGTIIC luciferase)
Set-up: species or system human
Conditions: Homo sapiens; MSTO-211H+12XGTIIC cell line, luciferase signal normalized to cell viability, 24 hours compound incubation; read-out: MSTO-211H GMean IC50 (uM) Cell Assay Reporter Cell Variant: TEAD
Excerpt: Determine Inhibitor Activity Against TEAD-Dependent Transcription in a Cell-Based Reporter Assay
The human mesothelioma cell line MSTO-211H was stably transfected with a pGL4.21 plasmid containing a synthetic promoter with 12 copies of the GTIIC TEAD response element that drives the expression of a luciferase reporter gene^1 using Lipofectamine transfection reagent (Thermo Fisher). Transfected cells were selected using puromycin and single cell clones expressing this construct (referred to as MSTO-211H+12XGTIIC) were generated by limiting dilution. MSTO-211H cells was characterized by genetic alterations in key components of the Hippo pathway^2, resulting in up-regulation of YAP/TEAD-mediated transcription. […] To evaluate TEAD inhibitors, the MSTO-211H+12XGTIIC cell line was seeded in a 96-well plate in 50 μL of culture media at 1×10^4 cells per well and incubated at 37° C. overnight. Serial dilutions of compounds (in total volume of 50 μL of culture media) were added to the cells and incubated at 37° C. for 24 hours. Each plate included cells treated with DMSO as high controls and cells treated with 20 μM of the reference compound K-975 (a known TEAD inhibitor)^3 as low controls. Cell viability was assayed by the addition of 25 μL of CellTiter-Fluor reagent (Promega) followed by a 30-minute incubation at 37° C. and quantification of the fluorescence signal (Ex400/Em505). Subsequently, luciferase expression was assayed by the addition of 25 μL of ONE-Glo reagent (Promega) followed by a 10-minute incubation at room temperature and quantification of the luminescence signal. The luminescence signal was normalized to the fluorescence signal to correct for any loss in cell viability over the 24-hour compound incubation period. The percentage of inhibition of normalized luminescence signal, indicative of compound-mediated inhibition of TEAD-dependent transcription, at individual compound concentrations relative to high and low controls was calculated. The data were analyzed by using nonlinear regression to generate IC50 values for individual compounds.

| Compound | IC50 [µM] |
| --- | --- |
| CSCCC(=O)N1CCc2ccc(Oc3ccc(C(F)(F)F)cc3)cc2C1 [P-0031, 3-(methylthio)-1-(7-(4-(trifluoromethyl)phen-oxy)-3,4-dihydroisoquin-olin-2(1H)-yl)propan-1-one] | 0.001 to 10 |
| CCC(=O)CN1CCc2ccc(Oc3ccc(C(F)(F)F)cc3)cc2C1 [P-0028, 1-(7-(4-(trifluorometh-yl)phenoxy)-3,4-dihydro-isoquinolin-2(1H)-yl)-butan-2-one] | 10 to 100 |
| NC(=O)CCC(=O)N1CCc2ccc(Oc3ccc(C(F)(F)F)cc3)cc2C1 [P-0039, 4-oxo-4-(7-(4-(trifluoro-methyl)phenoxy)-3,4-dihydroisoquinolin-2(1H)-yl)butanamide] | 0.001 to 10 |
| CS(=O)(=O)CCC(=O)N1CCc2ccc(Oc3ccc(C(F)(F)F)cc3)c(-n3cc(C(F)(F)F)cn3)c2C1 [P-0208, 3-(methylsulfonyl)-1-(8-(4-(trifluoromethyl)-1H-pyrazol-1-yl)-7-(4-(trifluoromethyl)phen-oxy)-3,4-dihydroisoquin-olin-2(1H)-yl)propan-1-one] | 0.001 to 10 |
| CS(=O)(=O)N1CCc2ccc(Oc3ccc(C(F)(F)F)cc3)cc2C1 [P-0005, 2-(methylsulfonyl)-7-(4-(trifluoromethyl)phen-oxy)-1,2,3,4-tetrahydro-isoquinoline] | 0.001 to 10 |
| O=C(CCS(=O)(=O)C(F)(F)F)N1CCc2ccc(Oc3ccc(C(F)(F)F)cc3)cc2C1 [P-0061, 1-(7-(4-(trifluorometh-yl)phenoxy)-3,4-dihydro-isoquinolin-2(1H)-yl)-3-((trifluoromethyl)sulfon-yl)propan-1-one] | 0.001 to 10 |
| O=C(Nc1ccccc1)N1CCc2c(cccc2Oc2ccc(C(F)(F)F)cc2)C1 [P-0237, N-phenyl-5-(4-(trifluoro-methyl)phenoxy)-3,4-dihydroisoquinoline-2(1H)-carboxamide] | 0.001 to 10 |
| O=C(C1CC1)N1CCc2ccc(Oc3ccc(C(F)(F)F)cc3)cc2C1 [P-0015, cyclopropyl(7-(4-(trifluoromethyl)phen-oxy)-3,4-dihydroiso-quinolin-2(1H)-yl)-methanone] | 0.001 to 10 |
| Nc1ccc(C(=O)N2CCc3c(cccc3Oc3ccc(C(F)(F)F)cc3)C2)cn1 [P-0245, (6-aminopyridin-3-yl)(5-(4-(trifluoromethyl)phen-oxy)-3,4-dihydroisoquin-olin-2(1H)-yl)methanone] | 0.001 to 10 |
| CC(C)(O)CC(=O)N1CCc2c(cccc2Oc2ccc(C(F)(F)F)cc2)C1 [P-0264, 3-hydroxy-3-methyl-1-(5-(4-(trifluoromethyl)-phenoxy)-3,4-dihydroiso-quinolin-2(1H)-yl)butan-1-one] | 0.001 to 10 |
| O=C(CC1COC1)N1CCc2ccc(Oc3ccc(C(F)(F)F)cc3)cc2C1 [P-0069, 2-(oxetan-3-yl)-1-(7-(4-(trifluoromethyl)phen-oxy)-3,4-dihydroisoquin-olin-2(1H)-yl)ethan-1-one] | 0.001 to 10 |
| C=CC(=O)Nc1ncc(CC(=O)N2CCc3ccc(Oc4ccc(C(F)(F)F)c(F)c4)cc3C2)s1 [P-0163, N-(5-(2-(7-(3-fluoro-4-(trifluoromethyl)phen-oxy)-3,4-dihydroisoquin-olin-2(1H)-yl)-2-oxoeth-yl)thiazol-2-yl)acrylamide] | 0.001 to 10 |
| COC(=O)[C@@H]1Cc2ccc(Oc3ccc(C(F)(F)F)cc3)cc2CN1C(=O)CCS(C)(=O)=O [P-0224, methyl (S)-2-(3-(methyl-sulfonyl)propanoyl)-7-(4-(trifluoromethyl)-phenoxy)-1,2,3,4-tetra-hydroisoquinoline-3-carboxylate] | 0.001 to 10 |
| CC(C)C(=O)N1CCc2c(cccc2Oc2ccc(C(F)(F)F)cc2)C1 [P-0234, 2-methyl-1-(5-(4-(trifluoromethyl)phen-oxy)-3,4-dihydroisoquin-olin-2(1H)-yl)propan-1-one] | 0.001 to 10 |
| O=C(CCn1cnnc1)N1CCc2c(cccc2Oc2ccc(C(F)(F)F)cc2)C1 [P-0250, 3-(4H-1,2,4-triazol-4-yl)-1-(5-(4-(trifluoromethyl)-phenoxy)-3,4-dihydro-isoquinolin-2(1H)-yl)-propan-1-one] | 0.001 to 10 |
| NC(=O)CCS(=O)(=O)N1CCc2ccc(Oc3ccc(C(F)(F)F)cc3)cc2C1 [P-0051, 3-((7-(4-(trifluorometh-yl)phenoxy)-3,4-dihydro-isoquinolin-2(1H)-yl)sul-fonyl)propanamide] | 0.001 to 10 |

| Compound | IC50 [µM] |
| --- | --- |
| NC(=O)c1cccc(N2CCc3ccc(Oc4ccc(C(F)(F)F)cc4)cc3C2)n1 [P-0228, 6-(7-(4-(trifluoromethyl)-phenoxy)-3,4-dihydro-isoquinolin-2(1H)-yl)-picolinamide] | 0.001 to 10 |
| CC(=O)N1CCc2ccc(Oc3ccc(C(F)(F)F)cc3)cc2C1 [P-0013, 1-(7-(4-(trifluorometh-yl)phenoxy)-3,4-dihydroisoquinolin-2(1H)-yl)ethan-1-one] | 0.001 to 10 |
| N#Cc1ccncc1NC(=O)N1CCc2ccc(Oc3ccc(C(F)(F)F)cc3)cc2C1 [P-0064, N-(4-Cyanopyridin-3-yl)-7-(4-(trifluoromethyl)phenoxy)-3,4-dihydroisoquinoline-2(1H)-carboxamide] | 0.001 to 10 |
| CC(C)NC(=O)N1CCc2ccc(Oc3ccc(C(F)(F)F)cc3)cc2C1 [P-0019, N-isopropyl-7-(4-(trifluoromethyl)phen-oxy)-3,4-dihydroiso-quinoline-2(1H)-carbox-amide] | 0.001 to 10 |
| C=CC(=O)N1CC(C(=O)N2CCc3c(cccc3Oc3ccc(C(F)(F)F)cc3)C2)C1 [P-0255, 1-(3-(5-(4-(trifluorometh-yl)phenoxy)-1,2,3,4-tetrahydroisoquinoline-2-carbonyl)azetidin-1-yl)prop-2-en-1-one] | 0.001 to 10 |
| COC(=O)N1CCc2ccc(Oc3ccc(C(F)(F)F)cc3)cc2C1 [P-0025, methyl 7-(4-(trifluoro-methyl)phenoxy)-3,4-dihydroisoquinoline-2(1H)-carboxylate] | 0.001 to 10 |
| O=C(NC1CCCC1)N1CCc2ccc(Oc3ccc(C(F)(F)F)cc3)cc2C1 [P-0037, N-cyclopentyl-7-(4-(trifluoromethyl)phen-oxy)-3,4-dihydroiso-quinoline-2(1H)-carbox-amide] | 0.001 to 10 |
| CC(=O)N1CC(Cc2c(Oc3ccc(C(F)(F)F)cc3)ccc3c2CN(C(=O)CCS(C)(=O)=O)CC3)C1 [P-0216, 1-(8-((1-acetylazetidin-3-yl)methyl)-7-(4-(trifluoromethyl)phen-oxy)-3,4-dihydroisoquin-olin-2(1H)-yl)-3-(methyl-sulfonyl)propan-1-one] | 0.001 to 10 |
| CS(=O)(=O)CCC(=O)N1CCc2ccc(Oc3ccc(C(F)(F)F)cc3)cc2C1 [P-0018, 3-(methylsulfonyl)-1-(7-(4-(trifluoromethyl)phenoxy)-3,4-dihydroisoquinolin-2(1H)-yl)propan-1-one] | 0.001 to 10 |
| CS(=O)(=O)CCC(=O)N1CCc2ccc(Oc3ccc(C(F)(F)F)cc3)c(/C=C/C3CCNCC3)c2C1 [P-0222, (E)-3-(methylsulfonyl)-1-(8-(2-(piperidin-4-yl)-vinyl)-7-(4-(trifluoro-methyl)phenoxy)-3,4-dihydroisoquinolin-2(1H)-yl)propan-1-one] | 0.001 to 10 |
| C=CC(=O)N1CCCC(C(=O)N2CCc3ccc(Oc4ccc(C(F)(F)F)c(F)c4)cc3C2)C1 (centres unmarked) [P-0120, 1-(3-(7-(3-fluoro-4-(trifluoromethyl)phen-oxy)-1,2,3,4-tetrahydro-isoquinoline-2-carbon-yl)piperidin-1-yl)prop-2-en-1-one] | 0.001 to 10 |
| Nc1nc(C(=O)N2CCc3c(cccc3Oc3ccc(C(F)(F)F)cc3)C2)cs1 [P-0240, (2-aminothiazol-4-yl)(5-(4-(trifluoromethyl)phen-oxy)-3,4-dihydroisoquin-olin-2(1H)-yl)methanone] | 0.001 to 10 |
| CN(C)C1CC(C(=O)N2CCc3ccc(Oc4ccc(C(F)(F)F)c(F)c4)cc3C2)C1 (centres unmarked) [P-0111, (3-(dimethylamino)cyclo-butyl)(7-(3-fluoro-4-(trifluoromethyl)phen-oxy)-3,4-dihydroisoquin-olin-2(1H)-yl)methanone] | 0.001 to 10 |
| C[C@H](NC(=O)N1CCc2c(cccc2Oc2ccc(C(F)(F)F)cc2)C1)C1CC1 [P-0265, (S)-N-(1-cyclopropyl-ethyl)-5-(4-(trifluoro-methyl)phenoxy)-3,4-dihydroisoquinoline-2(1H)-carboxamide] | 0.001 to 10 |
| CS(=O)(=O)CCC(=O)N1CCc2ccc(Oc3ccc(C(F)(F)F)cc3)cc2C1C1CCC(C(F)(F)F)CC1 (centres unmarked) [P-0212, 3-(methylsulfonyl)-1-(1-(4-(trifluoromethyl)-cyclohexyl)-7-(4-(trifluoromethyl)phen-oxy)-3,4-dihydroisoquin-olin-2(1H)-yl)propan-1-one] | 0.001 to 10 |
| C[C@@H](CO)NC(=O)N1CCc2c(cccc2Oc2ccc(C(F)(F)F)cc2)C1 [P-0268, (S)-N-(1-hydroxypropan-2-yl)-5-(4-(trifluorometh-yl)phenoxy)-3,4-dihydro-isoquinoline-2(1H)-carboxamide] | 0.001 to 10 |
